Data taken from ChEMBL document CHEMBL3817749, “1,3-Oxazin-6-one Derivatives and Bohemamine-Type Pyrrolizidine Alkaloids from a Marine-Derived Streptomyces spinoverrucosus” (J Nat Prod, 2016).
Active and inactive are the calls of the source.

How the values were obtained:
HCC366 = assay: Cytotoxicity against human HCC366 cells assessed as reduction in cell viability incubated for 96 hrs by Cell-titer Glo reagent based assay; format: functional
A549 = assay: Cytotoxicity against human A549 cells assessed as reduction in cell viability incubated for 96 hrs by Cell-titer Glo reagent based assay; format: functional
HCC44 = assay: Cytotoxicity against human HCC44 cells assessed as reduction in cell viability incubated for 96 hrs by Cell-titer Glo reagent based assay; format: functional
Homo sapiens = species: Homo sapiens; assay: Cytotoxicity against human HCC1171 cells assessed as reduction in cell viability incubated for 96 hrs by Cell-titer Glo reagent based assay; format: functional
Pseudomonas aeruginosa = assay: Antibacterial activity against Pseudomonas aeruginosa assessed as zones of growth inhibition incubated for 24 hrs by […]; format: functional, organism-based
Bacillus subtilis = assay: Antibacterial activity against Bacillus subtilis assessed as zones of growth inhibition incubated for 24 hrs by […]; format: functional, organism-based

CC(C)=Cc1nc(N2C(=O)CC[C@@H]2C)cc(=O)o1
inactive: Activity (HCC366) | Activity (A549) | Activity (HCC44) | Activity (Homo sapiens) | growth inhibition (GI) (Pseudomonas aeruginosa) | growth inhibition (GI) (Bacillus subtilis)

CC(C)/C=C/C(=O)NC1=CC(=O)[C@]2(C)CC[C@H](C)N12
inactive: Activity (HCC366) | Activity (A549) | Activity (HCC44) | Activity (Homo sapiens) | growth inhibition (GI) (Pseudomonas aeruginosa) | growth inhibition (GI) (Bacillus subtilis)

CC(C)=CC(=O)NC1=CC(=O)[C@@]2(O)CC[C@H](C)N12
inactive: Activity (HCC366) | Activity (A549) | Activity (HCC44) | Activity (Homo sapiens) | growth inhibition (GI) (Pseudomonas aeruginosa) | growth inhibition (GI) (Bacillus subtilis)

C[C@H]1CC[C@@]2(C)C(=O)C=C(NC(=O)c3ccccc3)N12
inactive: Activity (HCC366) | Activity (A549) | Activity (HCC44) | Activity (Homo sapiens) | growth inhibition (GI) (Pseudomonas aeruginosa) | growth inhibition (GI) (Bacillus subtilis)

CC(C)=Cc1nc(N2C(=O)C[C@H](O)[C@@H]2C)cc(=O)o1
inactive: Activity (HCC366) | Activity (A549) | Activity (HCC44) | Activity (Homo sapiens) | growth inhibition (GI) (Pseudomonas aeruginosa) | growth inhibition (GI) (Bacillus subtilis)

C/C=C(\C)C(=O)NC1=CC(=O)[C@]2(C)CC[C@H](C)N12
inactive: Activity (HCC366) | Activity (A549) | Activity (HCC44) | Activity (Homo sapiens) | growth inhibition (GI) (Pseudomonas aeruginosa) | growth inhibition (GI) (Bacillus subtilis)

CC(C)=CC(=O)NC1=CC(=O)[C@]2(C)[C@H](O)[C@@H](O)[C@H](C)N12
inactive: Activity (HCC366) | Activity (A549) | Activity (HCC44) | Activity (Homo sapiens) | growth inhibition (GI) (Pseudomonas aeruginosa) | growth inhibition (GI) (Bacillus subtilis)

CC(C)=CC(=O)NC1=CC(=O)[C@]2(C)C=C[C@H](C)N12
inactive: Activity (HCC366) | Activity (A549) | Activity (HCC44) | Activity (Homo sapiens) | growth inhibition (GI) (Pseudomonas aeruginosa) | growth inhibition (GI) (Bacillus subtilis)
